Measurements as given in ChEMBL document CHEMBL1128111, “Synthesis and biological activity of a series of 4-aryl substituted benz[b]azepines: Antagonists at the strychnine-insensitive glycine site” (Bioorg Med Chem Lett, 1995).
Values belong to the compound of their own block, whether it stands above or below them. Calls of active or inactive are those of the source. No cut-off for these calls is given here.

Columns and labels:
[1] = biological target: T1, Glutamate NMDA receptor (Rattus norvegicus) (UniProt P35439+Q00959+Q00960+Q00961+Q62645+Q8VHN2+Q9R1M7); assay: The compound was tested in vivo for its effect on the NMDA receptor complex following administration by iv infusion in red nucleus assay; type: organism-based; design: unit not given here
[2] = biological target: T1, Glutamate NMDA receptor (Rattus norvegicus); assay: The compound was tested in vivo for its effect on the NMDA receptor complex following administration by iv infusion in red nucleus assay; Inactive; type: organism-based

Structure (SMILES): O=c1[nH]c2cc(Cl)ccc2c(O)c(-c2ccco2)c1=O
Activity [1]: 5

Structure (SMILES): O=c1[nH]c2cc(Cl)ccc2c(O)c(-c2cccs2)c1=O
Activity [1]: 5.6

Structure (SMILES): O=c1[nH]c2cc(Cl)ccc2c(O)c(-c2cccnc2)c1=O
Activity [2]: inactive

Structure (SMILES): O=c1[nH]c2cc(Cl)ccc2c(O)c(-c2ccccc2)c1=O
Activity [1]: 9.4

Next, values leading:

Activity [1]: 9.9
Structure (SMILES): COc1ccc(-c2c(O)c(=O)[nH]c3cc(Cl)ccc3c2=O)cc1

Activity [1]: 1.7
Structure (SMILES): O=c1[nH]c2cc(Cl)ccc2c(O)c(-c2ccccn2)c1=O

Activity [1]: 2.8
Structure (SMILES): COc1cccnc1-c1c(O)c(=O)[nH]c2cc(Cl)ccc2c1=O
